Source: patent US9296728B2, “Therapeutic compounds” (Regents of the University of Minnesota, priority 2012, dated 2016)
Read-outs that look alike come from different tables or passages of the source.

Legend:
[1] = Pharmacokinetic study of Compound 20 in ICR mice; type: in vivo; conditions: male, mouse, plasma; for concentration at 0.25 h / concentration at 0.5 h / concentration at 1 h / concentration at 2 h / concentration at 4 h / concentration at 6 h / concentration at 8 h / concentration at 24 h / concentration at 0 h / concentration at 0.083 h: ICR, 100 mg/kg; for concentration at 6 h / concentration at 24 h: n = 3; for AUC(0-inf) / AUC(0-t) / Cmax / Tmax / Vd/F: mean; for Vd/F: read-out: Vz/F
Protocol: 60 male ICR mice were split into two groups of 30. In each group the mice were prescribed Compound 20 at a dosage of 100 mg/kg. This dose was administered orally in group 1 and intraperitoneally in group 2. Each group of 30 mice was subdivided into groups of 3 mice. Blood samples were taken through orbital sinus method at 0, 0.083, 0.25, 0.5, 1, 2, 4, 6, 8 and 24 hours after administering Compound 20 and taken into tubes with anticoagulant at room temperature at least 30 minutes prior to centrifugation, then centrifuged at 10000 rpm for 5 minutes at 4° C. to separate plasma from the blood samples. Following centrifugation, the resulting serum was transferred to clean tubes and stored frozen at −80° C. Immediately following the blood samples, the brain tissue samples of mice were removed and stored frozen at −80° C.
A 20% brain homogenate was prepared by weighing brain tissue sample and adding, corresponding volume of saline into the manual homogenator. The dilution factor was 5 (w/v=1 g: 4 mL). The brain tissue sample was grinded slowly and repeatedly until it has become homogenous.
Plasma and Brain samples were centrifuged at 15777×g for 5 minutes, and 180 ul of supernatant was placed in a 96-well assay plate. To each well, 200 ul of a 50% ACN/H2O was added and the plates were shake-mixed for 3 minutes. 5 ul aliquots of each well were then analyzed using LC-MS/MS.
The standard non-compartmental model was used to generate the pharmacokinetic parameters: Cmax, Tmax, t1/2, AUC0->last, AUC0->inf, CL/F, and Vz/F. The maximum plasma concentration, Cmax, and its corresponding time, Tmax were directly recorded. Elimination rate constant kel was determined by linear regression of the terminal points of the semi-log plot of concentration against time. Elimination half-life was calculated by the formula; t12=0.693/kel. The Area Under the curve value from time 0 to 24 hours was defined as AUCt->last and calculated using the linear trapezoidal rule.

[2] = tested on: WiDr xenograft tumor model; test: Anticancer efficacy in Balb/c nude mice, WiDr xenograft (Example 8); type: in vivo; conditions: BALB/c nude mice with WiDr xenograft, 50-100 mg/Kg p.o. or i.p.
Protocol: Female BALB/c nude mice weighing ˜20 g were taken and 5.0 10^6 WiDr cancer cells were implanted into their right flanks with 1:1 mixture of 0.1 mL PBS and matrigel. The mice were arbitrarily chosen by chance and assigned into 7 groups (6 animals/group) and the treatment was started from the same day of the implantation of cancer cells. Mice in group 1 were orally administered two times daily with 100 mg/Kg of Compound 20. Mice in group 2 were orally administered four times per day with 50 mg/Kg of Compound 20. Group 3 mice were injected intraperitoneally 2 times per day with 100 mg/Kg of Compound 20. Group 4 mice were injected intraperitoneally one time per day with 100 mg/Kg and group 5 mice were injected intraperitoneally 2 times per day with 50 mg/Kg of Compound 20. Group 6 was treated with 0.2 mL of 2% DMSO in water intraperitoneally 4 times daily and group 7 mice were assigned as the control group to which tumor was allowed to grow without any drug administration (food only). The tumor volume was recorded every two days using the formula
[formula] where a is the long diameter of the tumor and b is the short diameter of the tumor. […] The inhibition rate was determined using the formula:
[formula] where C is average tumor weight of control group, T is average tumor weight of test group. […] The inhibition rate was determined using the above formula.

[3] = ip, 100 mg/kg i.p., n = 3, read-out: Plasma Concentration, Mean
[4] = ip, 100 mg/kg i.p., read-out: Plasma Concentration, individual animals (1#, 2#, 3#)
[5] = po, 100 mg/kg p.o., n = 3, read-out: Plasma Concentration, Mean
[6] = po, 100 mg/kg p.o., read-out: Plasma Concentration, individual animals (1#, 2#, 3#)

Compound: COc1cc(N(c2ccccc2)c2ccccc2)ccc1/C=C(\C#N)C(=O)O [Compound 20]
- concentration at 0.25 h [1, 3]: 55900 ng/mL
- concentration at 0.5 h [1, 3]: 37300 ng/mL
- concentration at 0.5 h [1, 4]: 51400 ng/mL
- concentration at 1 h [1, 3]: 34800 ng/mL
- concentration at 1 h [1, 4]: 31800 ng/mL
- concentration at 2 h [1, 3]: 35200 ng/mL
- concentration at 2 h [1, 4]: 38800 ng/mL
- concentration at 4 h [1, 3]: 25100 ng/mL
- concentration at 4 h [1, 4]: 25000 ng/mL
- concentration at 6 h ([1]; ip, 100 mg/kg i.p.): 7850 ng/mL
- concentration at 8 h [1, 3]: 2840 ng/mL
- concentration at 8 h [1, 4]: 2760 ng/mL
- concentration at 24 h ([1]; ip, 100 mg/kg i.p.): 121 ng/mL
- concentration at 0 h [1, 5]: 0 ng/mL
- concentration at 0 h [1, 6]: 0 ng/mL
- concentration at 0.083 h [1, 5]: 3430 ng/mL
- concentration at 0.083 h [1, 6]: 2210 ng/mL
- concentration at 0.25 h [1, 5]: 9130 ng/mL
- concentration at 0.25 h [1, 6]: 9690 ng/mL
- concentration at 0.5 h [1, 5]: 15500 ng/mL
- concentration at 1 h [1, 5]: 7050 ng/mL
- concentration at 2 h [1, 5]: 3150 ng/mL
- concentration at 4 h [1, 5]: 3090 ng/mL
- concentration at 6 h ([1]; po, 100 mg/kg p.o.): 2470 ng/mL
- concentration at 8 h [1, 5]: 4010 ng/mL
- concentration at 24 h ([1]; po, 100 mg/kg p.o.): 47.7 ng/mL
- AUC(0-inf) ([1]; ip, 100 mg/kg i.p.): 201 µg·h/mL
- AUC(0-t) ([1]; ip, 100 mg/kg i.p.): 201 µg·h/mL
- Cmax ([1]; ip, 100 mg/kg i.p.): 61300 ng/mL
- Tmax ([1]; ip, 100 mg/kg i.p.): 30 min
- Vd/F ([1]; ip, 100 mg/kg i.p.): 2.35 L/kg
- AUC(0-inf) ([1]; po, 100 mg/kg p.o.): 66 µg·h/mL
- AUC(0-t) ([1]; po, 100 mg/kg p.o.): 65.7 µg·h/mL
- Cmax ([1]; po, 100 mg/kg p.o.): 17500 ng/mL
- Tmax ([1]; po, 100 mg/kg p.o.): 40 min
- Vd/F ([1]; po, 100 mg/kg p.o.): 6.55 L/kg
- systemic toxicity (inference from Example 8) [2]: without much systemic toxicity
